Experimental data reported in PubChem BioAssay (NCI).
“And” between values parts separate entries of the source, which are not always exact repeats. Equal entries are not always repeated.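 Method: 48-hour compound exposure of cells in 96-well plates, five concentrations, linear interpolation of endpoints. At the GI50, growth is halved. TGI is the concentration that stops growth completely.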

Columns and labels:
Assay in all cases: NCI tumour cell line growth inhibition, 48 h
OVCAR-8 ovarian = system: OVCAR-8 ovarian
CCRF-CEM leukemia = system: CCRF-CEM leukemia
A549 NSCLC = system: A549 NSCLC
MDA-MB-435 = system: MDA-MB-435
MALME-3M melanoma = system: MALME-3M melanoma
UACC-257 melanoma = system: UACC-257 melanoma
LOX IMVI melanoma = system: LOX IMVI melanoma
NCI/ADR-RES ovarian = system: NCI/ADR-RES ovarian
SR leukemia = system: SR leukemia
UACC-62 melanoma = system: UACC-62 melanoma

Row | Compound | TGI (OVCAR-8 ovarian) | TGI (CCRF-CEM leukemia) | TGI (A549 NSCLC) | TGI (MDA-MB-435) | TGI (MALME-3M melanoma) | TGI (UACC-257 melanoma) | TGI (LOX IMVI melanoma) | TGI (NCI/ADR-RES ovarian) | TGI (SR leukemia) | TGI (UACC-62 melanoma) | GI50 (OVCAR-8 ovarian) | GI50 (CCRF-CEM leukemia) | GI50 (MALME-3M melanoma) | GI50 (UACC-62 melanoma)
1 | O=C(Nc1ccccc1)N1CCN(C(=O)Nc2ccccc2)C1=S | > 100 µM | > 100 µM | > 100 µM | > 100 µM | > 100 µM | > 100 µM | > 100 µM | > 100 µM | > 100 µM | – | – | – | – | –
2 | CC(=O)n1[nH]c(=O)n(-c2ccc(Cl)cc2)c1=O | > 100 µM | > 100 µM | > 100 µM | > 100 µM | > 100 µM | > 100 µM | > 100 µM | > 100 µM | > 100 µM | > 100 µM | – | – | – | –
3 | Clc1ccc2c(NCCCCCCNc3ccnc4cc(Cl)ccc34)ccnc2c1 | 4.9 µM | 7.53 µM | 20.7 µM | 12.5 µM | 32.6 µM | 14.6 µM | 3.35 µM | 27.9 µM | 19.3 µM | 8.66 µM | – | – | – | –
4 | O=C1NC(O)c2cc3ccccc3cc2O1 (configuration not stated) | > 100 µM | > 100 µM | > 100 µM | > 100 µM | > 100 µM | > 100 µM | 95.3 µM | > 100 µM | 71.3 µM | 48.5 µM | – | – | – | –
5 | Oc1ccc(C(O)C2CCCCN2)cc1O (configuration not stated) | > 100 µM | – | > 100 µM | > 100 µM | > 100 µM | > 100 µM | 65.5 µM | > 100 µM | > 100 µM | > 100 µM | – | – | – | –
6 | COC(=O)C1OC(O[C@H]2CC[C@]3(C)[C@H]4CC=C5[C@@H]6CC(C)(C)CC[C@]6(C(=O)OC6OCC(O)C(O)C6OC6OC(C)C(OC7OCC(O)C(O)C7O)C(O)C6O)[C@H](O)C[C@@]5(C)[C@]4(C)CC[C@H]3C2(C)C)C(O)C(O)C1O (some centres not stated) | 26.8 µM and 8.47 µM | > 100 µM | 11.8 µM and 14.6 µM | 3.78 µM and 5.21 µM | 16.2 µM and 23.6 µM | 8.87 µM and 18.6 µM | 19.6 µM and 14.5 µM | 22.5 µM and 12.3 µM | > 100 µM and 13.4 µM | 8.55 µM and 21.7 µM | 11.8 µM and 2.76 µM | > 68.4 µM and 13.5 µM | 4.78 µM and 11.2 µM | 2.89 µM and 7.04 µM
7 | NC(=O)[C@H](Cc1ccc(O)cc1)Nc1c(O)c2c(c(O)c1Cl)C(=O)C=CC2=O | > 6.26 µM | 1.04 µM | > 10 µM | 4 µM | 3.78 µM | > 10 µM | > 4.65 µM | > 7.25 µM | 5.26 µM | 4.29 µM | – | – | – | –
8 | O=C(CNc1ccccc1C(=O)O)Nn1cnc2ccc(S(=O)(=O)Nc3ccccc3C(=O)O)cc2c1=O | > 100 µM | > 100 µM | > 100 µM | > 100 µM | > 100 µM | > 100 µM | > 100 µM | > 100 µM | > 100 µM | > 100 µM | – | – | – | –
9 | CC(=O)CC1(CBr)Nc2ccc([N+](=O)[O-])cc2NC1=O (configuration not stated) | > 100 µM | > 100 µM | > 100 µM | > 100 µM | > 100 µM | > 100 µM | > 100 µM | > 100 µM | > 100 µM | > 100 µM | – | – | – | –
